# Test results published in patent US9409884B2 (Rigel Pharmaceuticals, Inc., priority 2012, dated 2016).
# Target: AMPK
# Assay: AMPK activation, enzyme-linked immunosorbent assay
# Assay type: biochemical
# Conditions: Table 8, compounds of Table 1
# Summary of the method: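 Read-out: ELISA, used to detect compound-driven activation of AMPK.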
row,EC50 [µM],SMILES
1,> 10,"O=C(N[C@H]1CCNC1)c1ccc(OC2CCN(c3ccc(C(F)(F)F)cc3)CC2)cn1 [Compound 1-27, (S)-N-(pyrrolidin-3-yl)-5-(1-(4-(trifluoromethyl)phenyl)piperidin-4-yloxy)picolinamide]"
2,< 0.1,"N#Cc1ccc(CN2CCC(NC(=O)c3ccc(OC4CCN(c5ccc(C(F)(F)F)cc5)CC4)cn3)CC2)cc1 [Compound 1-4, N-(1-(4-cyanobenzyl)piperidin-4-yl)-5-(1-(4-(trifluoromethyl)phenyl)piperidin-4-yloxy) picolinamide]"
3,< 0.1,"O=C(NC1CCN(Cc2cccnc2)CC1)c1cc2cc(OC3CCN(c4ccc(C(F)(F)F)cc4)CC3)ccc2o1 [Compound 1-101, N-(1-(pyridin-3-ylmethyl)piperidin-4-yl)-5-(1-(4-(trifluoromethyl)phenyl)piperidin-4-yloxy)benzofuran-2-carboxamide]"
4,0.1 to 0.5,"O=S(=O)(NC1CCN(Cc2ccncc2)CC1)c1ccc(OC2CCN(c3ccc(C(F)(F)F)cc3)CC2)nc1 [Compound 1-51, N-(1-(pyridin-4-ylmethyl)piperidin-4-yl)-6-(1-(4-(trifluoromethyl)phenyl)piperidin-4-yloxy)pyridine-3-sulfonamide]"
5,< 0.1,"CC(C)(C)OC(=O)N1CCC(NC(=O)c2cc3cc(OC4CCN(c5ccc(C(F)(F)F)cc5)CC4)ccc3s2)CC1 [Compound 1-149, tert-butyl 4-(5-(1-(4-(trifluoromethyl)phenyl)piperidin-4-yloxy)benzo [b]thiophene-2-carboxamido) piperidine-1-carboxylate]"
6,0.1 to 0.5,"Cc1c(C(=O)NC2CCN(C(=O)OC(C)(C)C)CC2)oc2cc(OC3CCN(c4ccc(C(F)(F)F)cc4)CC3)ccc12 [Compound 1-61, tert-butyl 4-(3-methyl-6-(1-(4-(trifluoromethyl)phenyl)piperidin-4-yloxy)benzofuran-2-carboxamido) piperidine-1-carboxylate]"
7,0.1 to 0.5,"N#Cc1ccccc1CN1CCC(NC(=O)c2cc3ccc(OC4CCN(c5ccc(C(F)(F)F)cc5)CC4)cc3s2)CC1 [Compound 1-146, N-(1-(2-cyanobenzyl)piperidin-4-yl)-6-(1-(4-(trifluoromethyl)phenyl)piperidin-4-yloxy)benzo [b]thiophene-2-carboxamide]"
8,0.1 to 0.5,"CC(C)(C)OC(=O)N1CCC(NC(=O)c2cc3cc(OC4CCN(Cc5ccc(C#N)cc5)CC4)ccc3o2)CC1 [Compound 1-113, tert-butyl 4-(5-(1-(4-cyanobenzyl)piperidin-4-yloxy)benzofuran-2-carboxamido) piperidine-1-carboxylate]"
9,0.5 to 1,"O=C(NC1CCN(Cc2ccncc2)CC1)c1ccnc(OC2CCN(c3ccc(C(F)(F)F)cc3)CC2)c1 [Compound 1-20, N-(1-(pyridin-4-ylmethyl)piperidin-4-yl)-2-(1-(4-(trifluoromethyl)phenyl)piperidin-4-yloxy) isonicotinamide]"
10,0.5 to 1,"CC(C)(C)OC(=O)N1CCC(NC(=O)c2cc3cc(OC4CCN(c5ccc(C(F)(F)F)cc5)CC4)ccc3o2)CC1 [Compound 1-85, tert-butyl 4-(5-(1-(4-(trifluoromethyl)phenyl)piperidin-4-yloxy)benzofuran-2-carboxamido) piperidine-1-carboxylate]"
11,< 0.1,"N#Cc1ccc(CN2CCC(NC(=O)c3ccc(OC4CCN(c5ccc(C#N)cc5)CC4)cn3)CC2)cc1 [Compound 1-2, N-(1-(4-cyanobenzyl)piperidin-4-yl)-5-(1-(4-cyanophenyl)piperidin-4-yloxy) picolinamide]"
12,0.1 to 0.5,"CC(C)(C)OC(=O)N1CC[C@@H](NC(=O)c2ccc(OC3CCN(c4ccc(C(F)(F)F)cc4)CC3)cn2)C1 [Compound 1-23, (R)-tert-butyl 3-(5-(1-(4-(trifluoromethyl)phenyl)piperidin-4-yloxy)picolinamido) pyrrolidine-1-carboxylate]"

# Same assay, conditions: Table 9, compounds of Table 2
row,EC50 [µM],SMILES
1,< 0.5,"N#Cc1ccc(CN2CCC(NC(=O)c3ccc4[nH]c5c(c4c3)CN(Cc3ccc(F)cc3)CC5)CC2)cc1 [Compound 2-9, N-(1-(4-cyanobenzyl)piperidin-4-yl)-2-(4-fluorobenzyl)-2,3,4,5-tetrahydro-1H-pyrido[4,3-b]indole-8-carboxamide]"
2,1 to 5,"Cn1c2c(c3cc(C(=O)NC4CCN(Cc5cccnc5)CC4)ccc31)CN(Cc1ccc(C(F)(F)F)cc1)CC2 [Compound 2-18, 5-methyl-N-(1-(pyridin-3-ylmethyl)piperidin-4-yl)-2-(4-(trifluoromethyl)benzyl)-2,3,4,5-tetrahydro-1H-pyrido[4,3-b]indole-8-carboxamide]"
3,1 to 5,"O=C(NC1CCN(S(=O)(=O)c2ccc(C(F)(F)F)cc2)CC1)c1ccc2[nH]c3c(c2c1)CN(Cc1ccc(C(F)(F)F)cc1)CC3 [Compound 2-23, 2-(4-(trifluoromethyl)benzyl)-N-(1-(4-(trifluoromethyl)phenylsulfonyl)piperidin-4-yl)-2,3,4,5-tetrahydro-1H-pyrido[4,3-b]indole-8-carboxamide]"

# Same assay, conditions: Table 10, compounds of Table 3
row,EC50 [µM],SMILES
1,10 to 100,"N#Cc1ccc(CN2CCC(NC(=O)c3ccc(C(=O)N4CCN(c5ccc(Cl)cc5)CC4)cc3)CC2)cc1 [Compound 3-29, 4-(4-(4-chlorophenyl)piperazine-1-carbonyl)-N-(1-(4-cyanobenzyl)piperidin-4-yl)benzamide]"

# Same assay, conditions: Table 11, compounds of Table 4
row,EC50 [µM],SMILES
1,1 to 5,"O=C(N[C@H]1CCN(Cc2ccc(F)cc2)C1)c1ccc(C(=O)N2CCN(c3ccc(Cl)cc3)CC2)cn1 [Compound 4-4, (S)-5-(4-(4-chlorophenyl)piperazine-1-carbonyl)-N-(1-(4-fluorobenzyl)pyrrolidin-3-yl)picolinamide]"

# Same assay, conditions: Table 12, compounds of Table 5
row,EC50 [µM],SMILES
1,< 1,"N#Cc1ccc(CN2CCC(NC(=O)c3cccc(O[C@@H]4CCN(Cc5ccc(C(F)(F)F)cc5)C[C@H]4F)c3)CC2)cc1 [Compound 5-126, N-(1-(4-cyanobenzyl)piperidin-4-yl)-3-((3,4-trans)-3-fluoro-1-(4-(trifluoromethyl)benzyl)piperidin-4-yloxy)benzamide]"
2,20 to 50,"O=C(NC1CCN(Cc2ccccc2)CC1)c1cccc(OC2CCN(Cc3ccccc3)CC2)c1 [Compound 5-13, N-(1-benzylpiperidin-4-yl)-3-(1-benzylpiperidin-4-yloxy)benzamide]"
3,< 1,"N#Cc1ccc(CN2CCC(NC(=O)c3cccc(OC4CCN(Cc5cnn(-c6ccc(F)cc6)c5)CC4)c3)CC2)cc1 [Compound 5-122, N-(1-(4-cyanobenzyl)piperidin-4-yl)-3-(1-((1-(4-fluorophenyl)-1H-pyrazol-4-yl)methyl)piperidin-4-yloxy)benzamide]"
4,> 100,"Cn1cncc1CN1CCC(Oc2ccc(C(=O)NC3CCN(Cc4ccccc4)CC3)cc2)CC1 [Compound 5-4, N-(1-benzylpiperidin-4-yl)-4-(1-((1-methyl-1H-imidazol-5-yl)methyl)piperidin-4-yloxy)benzamide]"
5,< 1,"O=C(NC1CCN(Cc2ccccc2)CC1)c1ccc(OC2CCN(Cc3cccc(C(F)(F)F)c3)CC2)c(Cl)c1 [Compound 5-60, N-(1-benzylpiperidin-4-yl)-3-chloro-4-(1-(3-(trifluoromethyl)benzyl)piperidin-4-yloxy)benzamide]"
6,< 1,"O=C(NC1CCN(Cc2ccccc2)CC1)c1ccc(OC2CCN(Cc3cccc(C(F)(F)F)c3)CC2)c(F)c1 [Compound 5-59, N-(1-benzylpiperidin-4-yl)-3-fluoro-4-(1-(3-(trifluoromethyl)benzyl)piperidin-4-yloxy)benzamide]"

# Same assay, conditions: Table 13, compounds of Table 6
row,EC50 [µM],SMILES
1,0.1 to 1,"N#Cc1ccc(CN2CCC(NC(=O)c3cc4cc(NC(=O)C5CCN(Cc6ccc(C(F)(F)F)cc6)CC5)ccc4o3)CC2)cc1 [Compound 6-50, N-(2-(1-(4-cyanobenzyl)piperidin-4-ylcarbamoyl)benzofuran-5-yl)-1-(4-(trifluoromethyl)benzyl) piperidine-4-carboxamide]"
2,0.1 to 1,"COc1cc(CN2CCC(NC(=O)c3cc4cc(C(=O)N5CCN(Cc6ccc(S(C)(=O)=O)cc6)CC5)ccc4o3)CC2)ccc1F [Compound 6-98, N-(1-(4-fluoro-3-methoxybenzyl)piperidin-4-yl)-5-(4-(4-(methylsulfonyl)benzyl)piperazine-1-carbonyl) benzofiiran-2-carboxamide]"
3,< 0.1,"CS(=O)(=O)c1ccc(OC2CCN(C(=O)c3ccc4oc(C(=O)N[C@@H]5CCN(Cc6ccc(OC(F)(F)F)cc6)C[C@H]5F)cc4c3)CC2)cc1 [Compound 6-155, N-((3,4-trans)-3-fluoro-1-(4-(trifluoromethoxy)benzyl)piperidin-4-yl)-5-(4-(4-(methylsulfonyl)phenoxy)piperidine-1-carbonyl) benzofuran-2-carboxamide]"

# Same assay, conditions: Table 14, compounds of Table 7
row,EC50 [µM],SMILES
1,< 1,"COc1ccc(C(=O)C2CCN(C(=O)c3ccc(C(=O)NC4CCN(Cc5ccc(C#N)c(F)c5)C[C@@H]4C)cn3)CC2)cc1 (stereo partly drawn) [Compound 7-98, N-((3,4-cis)-1-(4-cyano-3-fluorobenzyl)-3-methylpiperidin-4-yl)-6-(4-(4-methoxybenzoyl)piperidine-1-carbonyl)nicotinamide]"
2,< 1,"COc1ccc(C(=O)C2CCN(C(=O)c3ccc(C(=O)NC4CCN(Cc5ccc(F)c(C)c5)C[C@H]4F)cn3)CC2)cc1 (stereo partly drawn) [Compound 7-37, N-((3,4-trans)-3-fluoro-1-(4-fluoro-3-methylbenzyl)piperidin-4-yl)-6-(4-(4-methoxybenzoyl)piperidine-1-carbonyl)nicotinamide]"
3,1 to 10,"Cc1cc(OC2CCN(C(=O)c3ccc(C(=O)NC4CCN(Cc5ccc(C#N)cc5)CC4)cn3)CC2)ccc1S(C)(=O)=O [Compound 7-13, N-(1-(4-cyanobenzyl)piperidin-4-yl)-6-(4-(3-methyl-4-(methylsulfonyl)phenoxy)piperidine-1-carbonyl) nicotinamide]"
4,1 to 10,"COc1ccc(C(=O)C2CCN(C(=O)c3ccc(C(=O)NC4CCN(Cc5ccc(OC)c(C#N)c5)CC4(C)C)cn3)CC2)cc1 (stereo not shown) [Compound 7-90, N-(1-(3-cyano-4-methoxybenzyl)-3,3-dimethylpiperidin-4-yl)-6-(4-(4-methoxybenzoyl)piperidine-1-carbonyl)nicotinamide]"
5,< 1,"Cc1nc2cc(OC3CCN(C(=O)c4ccc(C(=O)Nc5ccc(Oc6ccc(C#N)cc6)nc5)cn4)CC3)ccc2s1 [Compound 7-25, N-(6-(4-cyanophenoxy)pyridin-3-yl)-6-(4-(2-methylbenzo[d]thiazol-5-yloxy)piperidine-1-carbonyl)nicotinamide]"
